Entries after “also recorded” stand apart in the source; their conditions may differ.
Legend:
aged rats = assay: Von Frey testing of tactile sensitivity, aged rats; type: in vivo, rat
Description: Von Frey testing: Forty-eight hours after metabolism studies, tactile sensitivity was measured (once per week for the duration of the study) using von Frey nylon filaments applied to the suprapubic and plantar hindpaw (Stoelting Co., Wood Dale, Ill., USA). The median 50% withdrawal threshold (using up-down method) with positive responses are recorded as sharp retraction, licking/scratching, or vocalization.
Von Frey testing: Forty-eight h after the metabolism studies, tactile sensitivity was measured once per week using von Frey nylon filaments (Stoelting Co., Wood Dale, Ill., USA) applied to the suprapublic and plantar hindpaw. The median 50% withdrawal threshold (using an up-down method) with positive responses was recorded as sharp retraction, licking/scratching, or vocalization.
Von Frey Testing: Forty-eight hr after the metabolic cage studies, tactile sensitivity was measured once per week for the duration of the study using von Frey nylon filaments (Stoelting Co., Wood Dale, Ill., USA) applied to the suprapublic and plantar hindpaw. The withdrawal threshold (using up-down method) was determined, with positive responses defined as sharp retractions, licking/scratching, or vocalizations.

bladder wall = assay: Bladder volume measurements (bladder wall volume / thickness); type: in vivo, rat
Description: Bladder volume measurements: Changes in bladder wall thickness in all groups (young, aged, and aged+treatment) were measured by placing displacement markers on the bladder surface (in situ) while volume measurements were recorded. Custom computer algorithms were used to calculate longitudinal, circumferential, and area strain from measurements of surface marker positions.

AVP receptor V1a = assay: Western immunoblotting, kidney V1a vasopressin receptor; type: in vivo, rat; details: aged Fisher 344 rats; 8-AG 5 mg kg/day via drinking water, 1 month
Description: Western immunoblotting and transmission electron microscopy: Following these testing paradigms, rats were deeply anesthetized, bladders were removed, and one half of each bladder (using the smooth muscle layer) was homogenized using Lysing Matrix D in a FASTPREP-24™ instrument (MP BIOMEDICALS™, Solon, Ohio) in HBSS (5 mM KCl, 0.3 mM KH2PO4, 138 mM NaCl, 4 mM NaHO3, 0.3 mM Na2HCO3, 0.3 mM Na2HPO4, 5.6 mM glucose and 10 mM Hepes, pH 7.4) containing complete protease inhibitor cocktail (1 tablet/10 ml, ROCHE™, Indianapolis, Ind.) and phosphatase inhibitor cocktail (SIGMA®, 1:100). Whole rat kidney was also homogenized using the same procedure. After centrifugation (13000 rpm; 15 min at 4° C.), the membrane protein fraction was prepared by suspending the membrane pellets in lysis buffer containing 0.3 M NaCl, 50 mM Tris-HCl (pH 7.6), 0.5% Triton X-100, and the same concentration of protease inhibitors as above. […] The protein concentrations of the combined supernatants were determined using the PIERCE™ BCA protein assay (THERMO SCIENTIFIC™, Rockford, Ill.). […] As a loading control, total protein per sample was determined using BIO-RAD™ Stain Free SDS-PAGE gel technology. UV-activated protein fluorescence was imaged on a CHEMIDOC™ MP (BIO-RAD™). […] The volume (intensity) of each protein species was determined and normalized to total protein using Image Lab software (BIO-RAD™).

CYP-treated rats = assay: Laser Doppler bladder blood flow in CYP cystitis model; type: in vivo, rat; details: CYP (75 mg/kg i.p.) female Sprague Dawley rats; oral 8-AG 5 mg/kg/day starting one week prior to CYP
Description: Animals: Female Sprague Dawley rats were employed in this example (Charles River; Wilmington, Mass.). Three groups of animals were included. Group 1 received an i.p. injection of saline and was used as a control; groups 2 and 3 received an i.p. injection of cyclophosphamide (CYP, SIGMA-ALDRICH®, St Louis, Mo., day 0, 3, 6, sacrifice day 8, 75 mg/kg, i.p.) with group 3 treated with oral 8-AG (5 mg/kg/day; starting one week prior to CYP). CYP induced bladder inflammation and is a well-established pre-clinical model for BPS/IC.
Blood Flow Changes: Real-time bladder blood perfusion (1 mm^3 tissue) was accomplished using a BLF22D laser Doppler flowmeter (Transonic Systems, Inc) with a surface probe (TypeS-APLPHS) applied to the serosal surface of the bladder (apex and neck) wall using Doppler light shift from moving RBCs to analyze flow by the Bonner algorithm. This method gives robust, non-invasive microvascular flow signals in the bladder wall of anesthetized rats.

Rac 1 = Rac 1 (Homo sapiens, UniProt P63000); details: Jackson et al., J Am Heart Assoc 2018; cited from earlier work
[1] = aged Fischer 344 rats, oral 8-AG 5 mg/kg/day, 6 weeks
[2] = aged Fisher 344 rats, 8-AG 5 mg kg/day via drinking water, 1 month
[3] = aged rats, intravesical 100 μM 8-AG plus 10 μM DEA-NONOate, daily infusion 3-6 weeks

Nc1nc2[nH]c(N)nc2c(=O)[nH]1 [8-AG, 8-Aminoguanine]
abdominal response to tactile mechanical stimuli (aged rats; [1]): restored to a younger state | somatic response to tactile mechanical stimuli (aged rats; [1]): restored to a younger state | abdominal tactile mechanical sensitivity (aged rats; [2]): restored to a younger state; also recorded: reversed | somatic tactile mechanical sensitivity (aged rats; [2]): restored to a younger state; also recorded: reversed | abdominal tactile mechanical sensitivity (aged rats; [3]): increase in sensitivity; also recorded: improves | somatic tactile mechanical sensitivity (aged rats; [3]): increase in sensitivity; also recorded: improves | bladder wall volume (bladder wall; [2]): restored to that of a younger state | bladder wall width / thickness (bladder wall; aged rats, oral 8-AG 5 mg/kg/day, 6 weeks): restored to that of a younger state | V1a vasopressin receptor in kidney (AVP receptor V1a): restored to a younger state; also recorded: restored to levels similar to the younger state | bladder blood flow (CYP-induced hyperemia) (CYP-treated rats): abolished; also recorded: reversed to a control state | Rac 1 inhibition (mechanism of reduced potassium excretion) (Rac 1): inhibiting

— US20220054494A1, “METHODS FOR TREATING BLADDER AND URETHRA DYSFUNCTION AND DISEASE” (University of Pittsburgh - Of the Commonwealth System of …, priority 2019, published 2022)
